Measurements from ChEMBL document CHEMBL2073982, “Bumetanide is not transported by the Ntcp or by the oatp: evidence for a third organic anion transporter in rat liver cells” (Biochim Biophys Acta, 1996).

Molecular target: T1, Solute carrier organic anion transporter family member 1A1 (Rattus norvegicus, UniProt P46720)
T1 sequence (P46720 whole entry): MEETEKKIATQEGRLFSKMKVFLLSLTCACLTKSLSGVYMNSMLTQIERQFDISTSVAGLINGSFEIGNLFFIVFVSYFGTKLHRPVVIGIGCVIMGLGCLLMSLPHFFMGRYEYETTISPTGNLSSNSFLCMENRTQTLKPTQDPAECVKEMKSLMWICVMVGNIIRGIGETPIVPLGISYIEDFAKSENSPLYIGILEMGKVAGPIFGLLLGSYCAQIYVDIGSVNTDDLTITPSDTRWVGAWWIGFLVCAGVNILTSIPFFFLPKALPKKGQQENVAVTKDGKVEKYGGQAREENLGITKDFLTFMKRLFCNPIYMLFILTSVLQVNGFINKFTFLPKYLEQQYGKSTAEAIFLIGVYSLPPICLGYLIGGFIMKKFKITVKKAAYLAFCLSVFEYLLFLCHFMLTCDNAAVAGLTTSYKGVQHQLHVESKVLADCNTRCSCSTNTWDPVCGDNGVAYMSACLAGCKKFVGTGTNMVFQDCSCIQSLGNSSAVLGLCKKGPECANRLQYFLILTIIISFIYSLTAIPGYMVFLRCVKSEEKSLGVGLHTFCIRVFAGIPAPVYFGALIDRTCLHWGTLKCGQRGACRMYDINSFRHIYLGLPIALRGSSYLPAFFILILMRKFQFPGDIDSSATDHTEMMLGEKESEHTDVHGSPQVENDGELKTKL
Experiment: TP_TRANSPORTER: uptake in Xenopus laevis oocytes
Assay type: functional, cell-based
Details: oocyte

## CCCCNc1cc(C(=O)O)cc(S(N)(=O)=O)c1Oc1ccccc1 [BUMETANIDE]
  Activity: is not a substrate [-]
